Test results reported in patent US20230039219A1, “Improved Cell-Permeable Nuclear Import Inhibitor Synthetic Peptide for Inhibition of Cytokine Storm or Inflammatory Disease and Use Thereof” (priority 2020, published 2023).
Bridge positions count the residues as written; N and C are the ends. Ends that are not written are not given here. Peptide text beside a SMILES is read from it.

Tests used:
[1] = tested on: LPS/D-Gal acute liver injury model; experiment: LPS/D-galactosamine-induced acute liver injury model; conditions: LPS/D-Gal challenge; FIG. 1, 2, 4
[2] = set-up: species or system C57BL/6 mice; conditions: mouse, in vivo, iv
Procedure: To evaluate the pharmacokinetics of iCP-NI in the lungs, 6-8 weeks old C57BL/6 mice were intravenously administered with 100 mg/kg of FITC-conjugated iCP-NI. Subsequently, mice were sacrificed at various time points and lung tissues were obtained for pharmacokinetic analysis. Also, other tissues (brain, heart, liver, spleen, kidney, small/large intestine and pancreas) were collected for distribution of iCP-NI analysis. Representative lung tissue specimens were perfusion-fixed with 4% paraformaldehyde (PFA; BIOSESANG, Cat No. PC2031-100-00) and incubated in 30% sucrose solution overnight at 4° C. Next, specimens were embedded in optimal cutting temperature (OCT) compound (Leica Biosystems, Cat No. 3801480) and cryo-sectioned to a 10 μm thickness onto microscope glass slide. The cryo-sectioned samples were washed thoroughly with PBS and incubated with ammonium chloride (NH4Cl, Sigma-Aldrich, Cat No. A9434) solution for 20 minutes at room temperature (RT). The samples were mounted with DAPI-containing mounting solution (Invitrogen, Cat No. 00-4959-52) and visualized by fluorescence microscopy using a confocal laser scanning microscope system (Leica SP8) and the images were processed with Leica LAS X software).

time high levels remained in lung tissue [2] [h]	Molecule	effect on survival, comparison in words [1]
–	1NLS: linear nuclear localization sequence from NF-κB1 (p50); Table 1 prints VQRKRQKLMP (SEQ ID NO. 8) (NLS) [Structure 1NLS]	not enhanced
≥ 8	CC[C@H](C)[C@H](N)C(=O)N[C@@H](C)C(=O)N[C@@H](C)C(=O)N[C@H](C(=O)N[C@@H](CC(C)C)C(=O)N[C@@H](C)C(=O)N[C@@H](C)C(=O)N1CCC[C@H]1C(=O)N[C@@H](C)C(=O)N[C@@H](CC(C)C)C(=O)N[C@H](C(=O)N1CCC[C@H]1C(=O)N[C@H]1CSSC[C@@H](C(=O)O)NC(=O)[C@@H]2CCCN2C(=O)[C@H](CCSC)NC(=O)[C@H](CC(C)C)NC(=O)[C@H](CCCCN)NC(=O)[C@H](CCC(N)=O)NC(=O)[C@H](CCCNC(=N)N)NC(=O)[C@H](CCCCN)NC(=O)[C@H](CCCNC(=N)N)NC(=O)[C@H](CCC(N)=O)NC(=O)[C@H](C(C)C)NC1=O)C(C)C)C(C)C [iCP-NI] (H-IAAVLAAPALVPCVQRKRQKLMPC-OH; disulfide 13-24; N-terminus and C-terminus assumed)	–
–	cNLS: circular NLS CVQRKRQKLMPC (SEQ ID NO. 1), no aMTD (also: cyclised, mode not given here)	not enhanced
